Marks after values point to notes of the source that are not given here.
Tested on: TNBS-induced ulcerative colitis model mice
Experiment: TNBS-induced mice ulcerative colitis model
Assay type: in vivo, BALB/c male mice
Set-up: key to Scores of gross morphological damages: 0 = no adhesion/ulcer/inflammation, 4+ = severe ulcers (+1 per cm)
Method: BALB/c male mice (each 18-22 g) of SPF level were purchased from Shanghai Slack Laboratory Animal Co., Ltd. and were used in experiments after adaptive feeding for 7 days.
BALB/c male mice were kept in an animal cage (daylight and darkness of 12 hours, respectively) at a temperature of 20-25° C. and relative humidity of 50-60%, free access to food and water.
Mice were randomly divided into normal control group, trinitrobenzenesulfonic acid (TNBS) model group, drug treatment group and positive drug control group (sulfasalazine 500 mg/kg).
All of the mice in model group and administration group were shaved in the abdomen (area 2×2 cm) and sensitized with 1% TNBS (dissolved in 50% ethanol). On the 7th day, the mice were fasted, but not water. After 24 hours, the mice were anesthetized through intraperitoneal injection of 0.1 ml of 10% chloral hydrate and 2% TNBS was used for lavation to establish a mouse model of ulcerative colitis. A gavage needle for rat was inserted into the colon of a mouse, the tip of the needle was about 3˜3.5 cm away from the anus, and 0.1 ml of modeling solution (5% TNBS and deionized water were mixed at a volume ratio of 4:1, and the obtained solution was mixed with absolute ethanol at a volume ratio of 1:1, so as to obtain the modeling solution) was injected. The mice were put back into the cage and wake up naturally. The mice in the normal control group were injected with 0.12 ml of solvent (50% ethanol solution) by the same manner.
Administration was started on the day of modeling (using 0.5% sodium carboxymethylcellulose, CMC-Na) for 7 consecutive days.
At 24 hours after the last administration, the mice were sacrificed by cervical dislocation, the peritoneum was cut open, and the whole colon was taken. The intestine was cut longitudinally along the mesenteric margin, rinsed with ice physiological saline, placed on ice, and the pathological changes of the colon were observed. The fat and mesentery were removed, the water was blotted with filter paper, the weight of the colon was weighed and the length was measured. The colon was fixed in 4% formaldehyde for more than 24 hours, dehydrated, paraffin-embedded and H&E stained, and the pathological sections were observed.
The mice were observed and recorded daily for mental state, fur color, and activities. The mice was weighed daily and observed for the stool traits. The body weight index according to the disease activity index (DAI) is as follows:
After the colon of a mouse was removed, the weight of the colon was measured with a precision electronic balance, the length was measured with a vernier caliper, and the weight/length ratio of the colon was calculated.
The criteria for scores were: no adhesion, no ulcer, no inflammation, 0 points; mild adhesion, local congestion, no ulcer, 1 point; severe adhesion, 1 ulcer (area less than 1 cm), no obvious inflammation, 2 points; more than 1 ulcers (area less than 1 cm) with inflammation, 3 points; 2 severe ulcers (area greater than 1 cm) with inflammation, 4 points; and 1 point for each 1 cm increase in ulcer area.
Pathological changes of colon tissue were observed under light microscope, and the scores were recorded. The criteria for scores are as follows:
1) Epithelial cells: normal morphology, 0 points; loss of goblet cells, 1 point; large loss of goblet cells, 2 points; loss of crypt cells, 3 points; large loss of crypt cells, 4 points.
2) Infiltration of inflammatory cells: no infiltration, 0 points; infiltration in the basal layer of the crypt, 1 point; infiltration to the muscular layer of the mucosa, 2 points; infiltration to the muscular layer of the mucosa with mucosal thickening and obvious edema, 3 points; infiltration to the submucosal layer, 4 points.
Data were expressed as […] (mean±S.E.M.), data were analyzed using SPSS statistical software, and one-way ANOVA and Tukey's HSD post hoc test were used for comparison between groups. p<0.05 was considered statistically significant.

[1] = 24 hours after last administration, ig 7 days, compound 20 mg/kg, sulfasalazine 500 mg/kg

In the case of O=C(O)c1cc(/N=N/c2ccc(S(=O)(=O)Nc3ccccn3)cc2)ccc1O [sulfasalazine, reference compound], the “Score (body weight index according to the disease activity index, DAI)” value (0-4 points by weight decrease, ig 7 days, compound 20 mg/kg, sulfasalazine 500 mg/kg) is reported as 1, the “Length of the colon” value [1] is reported as 5.814 ± 0.465 cm and the “Weight of the colon” value [1] is reported as 0.145 ± 0.018 g. The “diarrhea of the mice (general condition)” value (FIG. 2, TNBS-mediated UC model BALB/c mice, Compound 16 in three different dosage groups, sulfasalazine control group) was “mild”, the death of mice (FIG. 2, on the 8th day of the experiment, model group mortality about 50%) was “only one mouse died” and the “extent of ulcer lesions of colon and visceral adhesions” value (FIG. 3, compound 312 at 5 mg/kg, 20 mg/kg, 50 mg/kg and positive drugs, vs model group) was “can improve the extent of ulcer lesions of colon and visceral adhesions”. The “histopathology of colon (HE staining, mucosal integrity / lesions)” value (FIG. 4, compared with the model group) was “largely reversed”, the Histopathology scores (H&E colon sections, epithelial cells and inflammatory cell infiltration points, ig 7 days, compound 20 mg/kg, sulfasalazine 500 mg/kg) was 1.71 ± 0.69 and the “Scores of gross morphological damages” value (colon adhesion, ulceration, inflammation points, ig 7 days, compound 20 mg/kg, sulfasalazine 500 mg/kg) was 0.81 ± 0.69. For the same molecule, the “weight/length ratio (average) of colon” value (colon weight (g) / length (cm), ig 7 days, compound 20 mg/kg, sulfasalazine 500 mg/kg) was 0.025# and the “Ratio of weight loss” value (ig daily for 7 days from day of modeling, compound 20 mg/kg, positive drug sulfasalazine 500 mg/kg, 10 mice per group) was 1.54 ± 3.72.

Source: patent US20190290620A1, “APPLICATIONS OF NOVEL THIAZOLE DERIVATIVE IN TREATING INFLAMMATORY BOWEL DISEASES” (EAST CHINA UNIVERSITY OF SCIENCE AND TECHNOLOGY, priority 2016, published 2019)
